28 compounds from US9975878B2, “Substituted triazine BMI-1 inhibitors” (PTC Therapeutics, Inc., priority 2013, dated 2018) can be followed below.

SMILES strings stand for the structures.

The assay concerns Bmi-1 protein. Briefly: Sandwich ELISA Assay: Bmi-1 protein level in HT-1080 cells treated with test compounds. The assay is classed as cell-based. Here is the method:
Cell Seeding and Compound Treatment (Day 1):
HT-1080 cells were seeded at 8000 cells/well (50 μL) in 96-well tissue culture plates. After the cells became adherent (3-4 hours), 2× diluted stocks of test compounds in 50 μL DMEM containing 1% DMSO (final DMSO concentration was 0.5%) were added and the plates were incubated at 37° C. under 5% CO2 for 40-48 hours.
ELISA Plate First Antibody Preparation (Day 2):
The First Antibody (Millipore Mouse, monoclonal to mouse Bmi-1, clone F6, catalog #05-637) diluted to 2 μg/mL in PBS was added (100 μL) to each well of a Nunc MaxiSorp 96-well ELISA plate. The plate was covered with a plate seal and allowed to stand overnight.
Cell Lysate Preparation (Day 3):
Fresh Lysis buffer (1×) was prepared on the day of the assay as follows: 1 mM EDTA, 150 mM NaCl, 0.5% Triton-X 100, 10 mM NaF, 20 mM B-Glycerophosphate, 1 mM DTT (in PBS, pH 7.2-7.4) and HALT protease inhibitor cocktail (1×) (Pierce #78410).
Lysis Buffer (1×, 40 μL) was added to each well and the plate was shaken for 5-10 minutes on an orbital shaker to allow cell lysis, then diluent (1% BSA in PBS in 0.5% NP40) (100 μL) was added to each well.
A standard curve was prepared at the following Bmi-1 concentrations: 8000, 4000, 2000, 1000, 500, 250, 125 and 0 pg/mL. The Bmi-1 Recombinant Protein Standard (Novus Biologicals PCGF4 Recombinant Protein (P01), catalog # H00000648-P01) used to prepare the standard curve was stored at −80° C. On first thaw, the Recombinant Protein Standard was diluted to 10 μg/μL in Blocking Buffer (1% BSA in PBS; BSA: Fisher Scientific Catalog #1600-100). Aliquots were taken and refrozen at −80° C. The aliquots may be kept at 4° C. and reused after first thaw, but only within 1-2 weeks. The Recombinant Protein Standard contains a GST-fusion tag that appears at approximately 70 Kda on Western Blot.
The prepared ELISA plate was washed 3× with Wash Buffer (0.05% Tween-20 in PBS). The final wash was removed from the plate and the plate was blotted dry. Blocking Buffer (300 μL) (1% BSA in PBS) was added to each well. The plate was covered with a plate seal and incubated at room temperature for 1 hour. The blocked plate was washed 3× with Wash Buffer, then the final wash was removed and the plate was blotted dry. The previously prepared samples and standards were added (100 μL/well) and the plate was covered with a plate seal and incubated at 4° C. overnight.
The prepared ELISA plate was removed from incubation and allowed to stand at room temperature for 30 minutes, then washed and blotted dry. The Second Antibody (Cell Signaling Rabbit anti-Bmi-1, Cat# 2830) diluted to 1:600 in Blocking Buffer was added (100 μL) to each well, except as needed for background control wells. The plate was covered with a plate seal and incubated for 1.5 hrs at room temperature.
The ELISA plate was washed and blotted dry as previously described. The Third Antibody (Cell Signaling HRP conjugated anti-rabbit IgG (CellSignaling, Cat#:7074) diluted to 1:300 in Blocking Buffer was added (100 μL) to each well, except as needed for background control wells. The plate was incubated for 1 hr at room temperature.
The plate was washed and blotted dry, then a previously prepared TMB substrate (TMB substrate kit, Pierce catalog #34021) (prepared by mixing kit reagents 1:1) (100 μL) was added per well. The plate was incubated for 20-30 minutes at room temperature in the dark, then Stop Solution (2 M sulfuric acid in water) (50 μL) was added per well. The plates were read at OD450 (experimental) and OD570 (reference).
(An ELISA detects its analyte on a solid surface through an enzyme-linked reagent.)
One may read the EC50 as the concentration that produces a half-maximal response. Read a high EC50 as a need for much substance. `Nc1nc(Nc2ccc(OC(F)F)c(F)c2)nc(-n2c(C3CC3)nc3ccc(F)cc32)n1` [Cpd 64, 6-(2-cyclopropyl-6-fluoro-1H-benzimidazol-1-yl)-N-[4-(difluoromethoxy)-3-fluorophenyl]-1,3,5-triazine-2,4-diamine] came in with an EC50 of 10 to 100 nM. Under `Cc1nc2c(F)cccc2n1-c1nc(N)nc(Nc2ccc(C(F)(F)F)cc2)n1` [Cpd 95, 6-(4-fluoro-2-methyl-1H-benzimidazol-1-yl)-N-[4-(trifluoromethyl)phenyl]-1,3,5-triazine-2,4-diamine] stands 100 to 3000 nM. As for `Cc1nc2ccc(F)cc2n1-c1nc(N)nc(Nc2ccc(OC(F)(F)F)cc2)n1` [Cpd 172, 6-(6-fluoro-2-methyl-1H-benzimidazol-1-yl)-N-[4-(trifluoromethoxy)phenyl]-1,3,5-triazine-2,4-diamine], the EC50 was 100 to 3000 nM. The compound `Cc1ccc(Nc2nc(N)nc(-n3c(C)nc4c(F)cc(F)cc43)n2)cc1` [Cpd 186, 6-(4,6-difluoro-2-methyl-1H-benzimidazol-1-yl)-N-(4-methylphenyl)-1,3,5-triazine-2,4-diamine] had an EC50 of 1 to 10 nM. Under `Nc1nc(Nc2ccc(C(F)(F)F)cc2)nc(-c2c(C(F)(F)F)nc3ccc(F)cn23)n1` [Cpd 25, 6-[6-fluoro-2-(trifluoromethyl)imidazo[1,2-a]pyridin-3-yl]-N-[4-(trifluoromethyl)phenyl]-1,3,5-triazine-2,4-diamine] stands 10 to 100 nM. `Cc1nc2c(F)cc(F)cc2n1-c1nc(N)nc(Nc2ccc(Br)cc2)n1` [Cpd 208, N-(4-bromophenyl)-6-(4,6-difluoro-2-methyl-1H-benzimidazol-1-yl)-1,3,5-triazine-2,4-diamine] came in with an EC50 of 10 to 100 nM. The figure for `Cc1nc2ncccc2n1-c1nc(N)nc(Nc2ccc(OC(F)F)cc2)n1` [Cpd 23, N-[4-(difluoromethoxy)phenyl]-6-(2-methyl-1H-imidazo[4,5-b]pyridin-1-yl)-1,3,5-triazine-2,4-diamine] is 100 to 3000 nM; for `CCc1nc2ccccc2n1-c1nc(N)nc(Nc2ccc(OC(F)F)c(F)c2)n1` [Cpd 37, N-[4-(difluoromethoxy)-3-fluorophenyl]-6-(2-ethyl-1H-benzimidazol-1-yl)-1,3,5-triazine-2,4-diamine] it is 10 to 100 nM; for `N#Cc1ccc(Nc2nc(N)nc(-n3c(C4CC4)nc4ccccc43)n2)cc1` [Cpd 158, 4-{[4-amino-6-(2-cyclopropyl-1H-benzimidazol-1-yl)-1,3,5-triazin-2-yl]amino}benzonitrile] it is 100 to 3000 nM. Under `Nc1nc(Nc2ccc(C(F)(F)F)cc2)nc(-n2c(C3CC3)nc3c(F)cc(F)cc32)n1` [Cpd 88, 6-(2-cyclopropyl-4,6-difluoro-1H-benzimidazol-1-yl)-N-[4-(trifluoromethyl)phenyl]-1,3,5-triazine-2,4-diamine] stands 10 to 100 nM; under `Cc1nc2ccccc2n1-c1nc(NO)nc(Nc2ccc(C(F)(F)F)cc2)n1` [Cpd 13, N-hydroxy-6-(2-methyl-1H-benzimidazol-1-yl)-N′-[4-(trifluoromethyl)phenyl]-1,3,5-triazine-2,4-diamine], 100 to 3000 nM; under `Nc1nc(Nc2ccc(OC(F)F)nc2)nc(-n2c(CF)nc3ccccc32)n1` [Cpd 110, N-[6-(difluoromethoxy)pyridin-3-yl]-6-[2-(fluoromethyl)-1H-benzimidazol-1-yl]-1,3,5-triazine-2,4-diamine], 100 to 3000 nM. Under `CCc1nn2ccccc2c1-c1nc(N)nc(Nc2ccc(OC(F)F)cc2)n1` [Cpd 129, N-[4-(difluoromethoxy)phenyl]-6-(2-ethylpyrazolo[1,5-a]pyridin-3-yl)-1,3,5-triazine-2,4-diamine] stands 100 to 3000 nM; under `Cc1nc2c(F)cc(F)cc2n1-c1nc(N)nc(Nc2ccc(Cl)cc2)n1` [Cpd 187, N-(4-chlorophenyl)-6-(4,6-difluoro-2-methyl-1H-benzimidazol-1-yl)-1,3,5-triazine-2,4-diamine], 100 to 3000 nM. As to `Cc1nc2ccccc2n1-c1nc(N)nc(Nc2ccc(OC(F)(F)F)cc2)n1` [Cpd 3, 6-(2-methyl-1H-benzimidazol-1-yl)-N-[4-(trifluoromethoxy)phenyl]-1,3,5-triazine-2,4-diamine], the EC50 was 100 to 3000 nM. The figure for `Nc1nc(Nc2ccc(Cl)cc2)nc(-n2c(C3CC3)nc3cc(F)ccc32)n1` [Cpd 193, N-(4-chlorophenyl)-6-(2-cyclopropyl-5-fluoro-1H-benzimidazol-1-yl)-1,3,5-triazine-2,4-diamine] is 100 to 3000 nM; for `Cc1nc2ncc(Cl)cc2n1-c1nc(NCCO)nc(Nc2ccc(C(F)(F)F)cc2)n1` [Cpd 35, 2-{[4-(6-chloro-2-methyl-1H-imidazo[4,5-b]pyridin-1-yl)-6-{[4-(trifluoromethyl)phenyl]amino}-1,3,5-triazin-2-yl]amino}ethanol] it is 100 to 3000 nM; for `Cc1nc2ccccc2n1-c1nc(NO)nc(Nc2ccc3ncccc3c2)n1` [Cpd 16, N-hydroxy-6-(2-methyl-1H-benzimidazol-1-yl)-N′-(quinolin-6-yl)-1,3,5-triazine-2,4-diamine] it is 10 to 100 nM. For `CCc1nc2ccc(F)cc2n1-c1nc(N)nc(Nc2ccc(OC)cc2)n1` [Cpd 168, 6-(2-ethyl-6-fluoro-1H-benzimidazol-1-yl)-N-(4-methoxyphenyl)-1,3,5-triazine-2,4-diamine], the EC50 is 1 to 10 nM. Under `Cc1nc2ccc(F)cc2n1-c1cnnc(Nc2ccc(C(F)(F)F)cc2)n1` [Cpd 126, 5-(6-fluoro-2-methyl-1H-benzimidazol-1-yl)-N-[4-(trifluoromethyl)phenyl]-1,2,4-triazin-3-amine] stands 100 to 3000 nM; under `COc1ccc(Nc2cnnc(-n3c(C)nc4ccccc43)n2)cc1` [Cpd 144, N-(4-methoxyphenyl)-3-(2-methyl-1H-benzimidazol-1-yl)-1,2,4-triazin-5-amine], 1 to 10 nM. Under `Cc1nc2cc(Cl)c(Cl)cc2n1-c1nc(N)nc(Nc2ccc(C(F)(F)F)cc2)n1` [Cpd 12, 6-(5,6-dichloro-2-methyl-1H-benzimidazol-1-yl)-N-[4-(trifluoromethyl)phenyl]-1,3,5-triazine-2,4-diamine] stands 100 to 3000 nM. On to `COc1ccc(Nc2nc(N)nc(-n3c(C)nc4cc(F)c(F)cc43)n2)cc1` [Cpd 194, 6-(5,6-difluoro-2-methyl-1H-benzimidazol-1-yl)-N-(4-methoxyphenyl)-1,3,5-triazine-2,4-diamine], for which the EC50 lay within 1 to 10 nM. The figure for `CCc1nc2cc(F)c(F)cc2n1-c1nc(N)nc(Nc2ccc(OC(F)F)cc2)n1` [Cpd 84, N-[4-(difluoromethoxy)phenyl]-6-(2-ethyl-5,6-difluoro-1H-benzimidazol-1-yl)-1,3,5-triazine-2,4-diamine] is 10 to 100 nM; for `CCc1nc2ccc(F)cc2n1-c1nc(N)nc(Nc2ccc(OC(F)(F)F)cc2)n1` [Cpd 171, 6-(2-ethyl-6-fluoro-1H-benzimidazol-1-yl)-N-[4-(trifluoromethoxy)phenyl]-1,3,5-triazine-2,4-diamine] it is 100 to 3000 nM. Under `CCc1nc2c(F)cccc2n1-c1nc(N)nc(Nc2ccc(C(F)(F)F)cc2)n1` [Cpd 68, 6-(2-ethyl-4-fluoro-1H-benzimidazol-1-yl)-N-[4-(trifluoromethyl)phenyl]-1,3,5-triazine-2,4-diamine] stands 10 to 100 nM; under `CCc1nc2ccccc2n1-c1nc(N)nc(Nc2ccc(C#N)cc2)n1` [Cpd 163, 4-{[4-amino-6-(2-ethyl-1H-benzimidazol-1-yl)-1,3,5-triazin-2-yl]amino}benzonitrile], 100 to 3000 nM.

Take `Cc1nc2ccccc2n1-c1nc(N)nc(Nc2ccc3c(c2)OCO3)n1` [Cpd 18, N-(1,3-benzodioxol-5-yl)-6-(2-methyl-1H-benzimidazol-1-yl)-1,3,5-triazine-2,4-diamine]: the EC50 was 1 to 10 nM.
